Read-outs that look alike come from different tables or passages of the source.
Tests used:
[1] = molecular target: biotin protein ligase from Escherichia coli (EcBPL) (Escherichia coli (strain K12), UniProt P06709); assay: BPL enzyme inhibition assay (3H-biotin incorporation), EcBPL; format: biochemical
Method: (§1) Quantitation of BPL catalysed ^3H-biotin incorporation into the biotin domain substrate was performed as previously described by Polyak et al, J. Biol. Chem (1999) 274(46) 32847-54. Briefly, the reaction mixture contained: 50 mM Tris HCl pH 8.0, 3 mM ATP, 4.5 μM biotin, 0.5 μM ^3H-biotin, 5.5 mM MgCl2, 100 mM KCl, 0.1 mg/mL BSA and 10 μM biotin domain of S. aureus pyruvate carboxylase. The reaction was initiated by the addition of BPL to a final concentration of 4 nM. After 20 minutes at 37° C., 4 μL aliquots of the reaction were spotted onto Whatman paper pre-treated with biotin and trichloroacetic acid. The filters were washed twice with 10% v/v ice-cold trichloroacetic acid and once with ethanol before air-drying. Quantitation of protein-bound radiolabelled biotin was performed by liquid scintillation. One unit of enzyme activity was defined by the amount of BPL required to incorporate 1 nmol of biotin per minute. The IC50 value of each compound was determined from a dose-response curve by varying the concentration of the inhibitor under the same enzyme concentration. The data was analysed with GraphPad Prism using a non-linear fit of log10 (inhibitor) vs. normalized response. The Ki, the absolute inhibition constant for a compound, was determined using Eq 1:
(§2) The inhibitory activity of the compounds was determined by measuring BPL activity with varying concentrations of inhibitors. From the dose-response curves IC50 values were determined and Ki values calculated.

[2] = molecular target: biotin protein ligase from S. aureus (SaBPL) (Staphylococcus aureus, UniProt A0A3A5LBF0); assay: BPL enzyme inhibition assay (3H-biotin incorporation), SaBPL; format: biochemical; settings: for IC50: 4 nM BPL, 20 minutes at 37° C.; for selectivity towards SaBPL over HsBPL (human BPL): Hs vs SaBPL
biotin protein ligase from S. aureus (SaBPL), sequence (A0A3A5LBF0 1-323): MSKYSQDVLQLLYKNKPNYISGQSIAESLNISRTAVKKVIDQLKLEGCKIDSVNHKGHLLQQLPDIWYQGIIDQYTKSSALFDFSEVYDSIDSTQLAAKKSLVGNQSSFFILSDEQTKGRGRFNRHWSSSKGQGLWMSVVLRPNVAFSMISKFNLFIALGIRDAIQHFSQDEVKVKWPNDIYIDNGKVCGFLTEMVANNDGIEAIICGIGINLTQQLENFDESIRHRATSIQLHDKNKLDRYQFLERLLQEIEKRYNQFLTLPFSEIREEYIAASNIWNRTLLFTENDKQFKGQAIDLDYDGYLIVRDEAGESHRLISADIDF
Method: as §1
The mode of inhibition was investigated by varying the concentrations of inhibitor alongside varying the concentrations of ^3H-biotin. The data was plotted as double reciprocal plots and assessed using Lineweaver-Burk analysis.
Triazoles 6.02-6.10 were assayed for inhibitory activity against the biotin protein ligases from S. aureus (SaBPL), Escherichia coli (EcBPL) and Homo sapiens (HsBPL) (Table 3). The inhibitory activity of the compounds was determined by measuring BPL activity with varying concentrations of inhibitors. From the dose-response curves IC50 values were determined and Ki values calculated.

[3] = molecular target: biotin protein ligase from Homo sapiens (HsBPL) (Homo sapiens (Human), UniProt P50747); assay: BPL enzyme inhibition assay (3H-biotin incorporation), HsBPL; format: biochemical
biotin protein ligase from Homo sapiens (HsBPL), sequence (P50747 whole entry): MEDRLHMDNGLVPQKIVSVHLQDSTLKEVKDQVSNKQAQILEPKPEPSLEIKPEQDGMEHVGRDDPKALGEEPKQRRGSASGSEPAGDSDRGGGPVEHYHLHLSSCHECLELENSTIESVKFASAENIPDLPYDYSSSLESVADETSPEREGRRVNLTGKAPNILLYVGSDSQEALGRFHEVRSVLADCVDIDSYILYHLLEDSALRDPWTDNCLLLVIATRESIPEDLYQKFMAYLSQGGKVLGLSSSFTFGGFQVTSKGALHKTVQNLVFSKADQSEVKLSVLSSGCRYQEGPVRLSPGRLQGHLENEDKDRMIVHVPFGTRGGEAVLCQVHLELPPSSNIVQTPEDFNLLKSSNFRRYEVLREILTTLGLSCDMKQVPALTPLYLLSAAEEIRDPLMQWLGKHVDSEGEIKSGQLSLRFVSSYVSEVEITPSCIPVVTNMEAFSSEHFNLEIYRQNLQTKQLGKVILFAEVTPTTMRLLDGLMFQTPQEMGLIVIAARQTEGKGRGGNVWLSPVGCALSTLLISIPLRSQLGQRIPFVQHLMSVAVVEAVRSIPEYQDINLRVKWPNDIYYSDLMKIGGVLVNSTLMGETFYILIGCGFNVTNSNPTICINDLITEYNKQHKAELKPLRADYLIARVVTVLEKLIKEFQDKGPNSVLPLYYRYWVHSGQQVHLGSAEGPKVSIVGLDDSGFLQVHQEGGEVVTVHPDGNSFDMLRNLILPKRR
Method: as §1, §2

Enterococcus faecium = assay: Antimicrobial microbroth dilution assay, E. faecium; format: cell-based
Method: (§3) The biotin-triazoles were assessed for their antimicrobial activity using a microbroth dilution assay as recommended by the CLSI (Clinical and Laboratory Standards Institute, Document […]-A8, 2009, Wayne, Pa.) with cation-adjusted Mueller-Hinton broth (Trek Diagnostics Systems, U.K.). Compounds were dissolved using DMSO. Serial two-fold dilutions of each compound were made using DMSO as the diluent. Trays were inoculated with 5×10^4 CFU of each strain in a volume of 100 μL (final concentration of DMSO was 5% (v/v)), and incubated at 35° C. for 16-20 hours when the optical density of the growth cultures was measured by spectroscopy at wavelength 620 nm. A library of Gram negative and Gram positive microbes was employed.

Enterococcus faecalis = assay: Antimicrobial microbroth dilution assay, E. faecalis; format: cell-based
Method: as §3

S. aureus ATCC 49775 = assay: Antimicrobial microbroth dilution assay, S. aureus; format: cell-based, Staphylococcus aureus; settings: at 8 μg/ml
Method: as §3, with “employed. […] Inhibition of the growth of S. aureus ATCC 49775 was measured using a microbroth dilution assay with varying concentrations of BPL inhibitors. […] The antibiotic erythromycin was also included (X).” for “employed.”

M. tuberculosis BPL = M. tuberculosis BPL (Mycobacterium tuberculosis (strain ATCC 25618 / H37Rv), UniProt I6YFP0); assay: BPL inhibition, M. tuberculosis BPL; format: biochemical, Mycobacteria tuberculosis
M. tuberculosis BPL, sequence (I6YFP0 whole entry, looked up): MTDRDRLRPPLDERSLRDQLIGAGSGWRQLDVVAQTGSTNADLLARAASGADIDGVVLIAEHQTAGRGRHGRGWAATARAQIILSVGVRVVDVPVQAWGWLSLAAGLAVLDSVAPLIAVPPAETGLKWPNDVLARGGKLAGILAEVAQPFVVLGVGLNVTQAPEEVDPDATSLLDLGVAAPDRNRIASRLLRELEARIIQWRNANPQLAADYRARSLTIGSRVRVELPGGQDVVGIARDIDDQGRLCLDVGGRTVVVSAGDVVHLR

[4] = read-out: Ki EcBPL (E. coli BPL)
[5] = calculated from IC50, [biotin]=5 μM, Km 1 μM, read-out: Ki SaBPL

biotin protein ligase from Escherichia coli (EcBPL), sequence (P06709 whole entry, looked up, the tested form may be a part): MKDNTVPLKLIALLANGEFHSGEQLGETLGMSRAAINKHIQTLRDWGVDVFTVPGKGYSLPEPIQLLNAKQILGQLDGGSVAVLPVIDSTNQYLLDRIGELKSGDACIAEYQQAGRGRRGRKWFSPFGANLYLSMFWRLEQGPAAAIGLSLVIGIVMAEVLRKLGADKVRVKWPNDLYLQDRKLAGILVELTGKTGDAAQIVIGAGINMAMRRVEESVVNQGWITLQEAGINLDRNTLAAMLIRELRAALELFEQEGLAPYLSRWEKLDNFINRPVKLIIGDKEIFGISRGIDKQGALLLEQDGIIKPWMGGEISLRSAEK

| Molecule | Ki [1] [µM] | Ki [1, 4] [µM] | fold less potent against SaBPL compared to biotinol-5′-AMP 2.02 [2] [fold] | IC50 [2] [µM] | selectivity towards SaBPL over HsBPL (human BPL) [2] | Ki ([2]; read-out: Ki SaBPL) [µM] | Ki [3] [µM] | Ki [2] [µM] | inhibition against SaBPL [2] | Ki [2, 5] [µM] | further results |
| --- | --- | --- | --- | --- | --- | --- | --- | --- | --- | --- | --- |
| CC1(C)O[C@@H]2[C@H](O1)[C@@H](n1cnc3c(N)ncnc31)O[C@H]2Cn1cc(CCCCC[C@@H]2SC[C@@H]3NC(=O)N[C@@H]32)nn1 [3.25] | > 90 | > 30 | 60 | 11.6 ± 2.2 | > 16 fold | 1.83 ± 0.33 | > 90 | – | – | – | – |
| Nc1ncnc2c1ncn2CCCCCn1cc(CCCC[C@@H]2SC[C@@H]3NC(=O)N[C@@H]32)nn1 [4.13] | > 10 | – | – | – | – | – | > 10 | 2.86 ± 0.75 | micromolar inhibition | – | fold less potent against SaBPL compared to 4.01 [2]: 4 fold |
| CC1(C)O[C@@H]2[C@H](O1)[C@@H](n1cnc3c(N)ncnc31)O[C@H]2Cn1cc(CCCC[C@@H]2SC[C@@H]3NC(=O)N[C@@H]32)nn1 [4.09] | > 10 | – | – | – | – | – | > 10 | 7.53 ± 1.9 | micromolar inhibition | – | fold less potent against SaBPL compared to triazole 3.25 [2]: 4 fold |
| biotin alkyne [3.12] | – | – | – | – | – | 0.33 ± 0.05 | – | – | – | – | – |
| Cc1ccc2oc(=O)n(CCCCOP(=O)(O)OCCCCC[C@@H]3SC[C@@H]4NC(=O)N[C@@H]43)c2c1 | – | – | – | > 50 | – | – | – | – | – | > 10 | – |
| O=C1N[C@H]2[C@H](CS[C@H]2CCCCCc2cn(CCCCOc3ccc4ccccc4c3)nn2)N1 [6.07] | – | > 30 | – | 7 ± 1 | – | – | > 30 | – | – | 1.17 ± 0.17 | fold less potent against SaBPL compared to 4.01 [2]: 7 fold |
| Cc1ccc2oc(=O)n(CCCCn3cc(CCCCC[C@@H]4SC[C@@H]5NC(=O)N[C@@H]54)nn3)c2c1 [6.09] | – | > 30 | 3 | 0.53 ± 0.01 | > 1000 fold | 0.09 ± 0.02 | > 30 | – | – | – | inhibition of growth of Enterococcus faecium (Enterococcus faecium): no inhibition of growth; fold increase in potency against SaBPL compared to 4.01 [2]: 7 fold; selectivity towards SaBPL over EcBPL (E. coli BPL) [2]: > 1000 fold; inhibition of growth of Enterococcus faecalis (Enterococcus faecalis): no inhibition of growth; prevention of cell growth of S. aureus ATCC 49775 (S. aureus ATCC 49775): 80% |
| Cc1ccc2oc(=O)n(CCCCc3noc(CCCCC[C@@H]4SC[C@@H]5NC(=O)N[C@@H]54)n3)c2c1 [compound 2, 3-[4-[5-[5-[(3aS,4S,6aR)-2-oxo-1,3,3a,4,6,6a-hexahydrothieno[3,4-d]imidazol-4-yl]pentyl]-1,2,4-oxadiazol-3-yl]butyl]-5-methyl-1,3-benzoxazol-2-one] | – | – | – | – | – | – | – | 2.2 ± 0.8 | – | – | Ki (M. tuberculosis BPL): 290 ± 16 µM |
| Nc1ncnc2c1ncn2CCCCn1cc(CCCCC[C@@H]2SC[C@@H]3NC(=O)N[C@@H]32)nn1 [4.01] | > 90 | > 30 | 22 | 4 ± 0.9 | at least 400 fold | – | > 90 | – | micromolar inhibition | 0.66 ± 0.15 | IC50 [1]: > 200 µM; selectivity towards SaBPL over EcBPL (E. coli BPL) [2]: at least 400 fold; IC50 ([3]; in b132 the quantity is not named): > 200 µM |
